Consider 6 compounds from patent US10493153B2, “Alkylated photoremovable protecting groups and uses thereof” (Iowa State University Research Foundation, Inc., priority 2018, dated 2019).

What all share (format): physicochemical
Data set [1] in a line: Quantum yield and quantum efficiency of photorelease on irradiation. The following applies: for εΦ (quantum efficiency): product of extinction coefficient and quantum yield; for Φ (quantum yield): solutions in methanol, λirr 365, 490, 507 nm. The method, then:
A solution of the given compound (3.0 mL) in a matched 1.0 cm quartz PTFE screw-cap fluorescence cuvette equipped with a stir bar was irradiated with a light source (32 LEDs emitting at the selected wavelength: λmax=365, 490, 507 nm; the bandwidths at half height=30 nm; high-pressure 450 W mercury-xenon arc lamp with a monochromator with 200-1600 nm grating set to 365±0.5 nm). The reaction progress was monitored by UV-vis spectrometry using a diode-array spectrophotometer in a kinetic mode.
Photodegradation quantum yields for both aerated and degassed (freeze-pump-thaw technique; 3 cycles) solutions in methanol were determined at λirr=365 (LEDs and mercury-xenon arc lamp), 490 nm (LEDs), and 507 nm (LEDs) with xanthene-9-carboxylic acidl and BODIPY-CORM2 as actinometers; most values were cross-checked using ferrioxalate3 at λirr=365 nm. The data were processed using single value decomposition (SVD) software assuming the first-order rate law. The amount of absorbed light was calculated from the whole emission spectrum of the light source. […] All quantum yield measurements were repeated at least 6 times with independently prepared samples.
(§1) The observed substrate release rate as a function of photolysis time is quantified by the quantum efficiency parameter (εϕ), which is the product of the extinction coefficient at the irradiation wavelength (E) and the quantum yield (ϕ). Extinction coefficients for compounds 1-7 were determined by UV-Vis spectroscopy (see Table 1).

Data set [2] is described as follows: UV-Vis absorption spectroscopy (absorption maximum, extinction coefficient). To be noted: for λmax: absorption maximum, UV-vis; for ε (extinction coefficient): determined by UV-Vis spectroscopy, in M-1cm-1 (unit assumed).
Description: (§2) All manipulation with photosensitive samples were accomplished under the red light (λ>600 nm). In the spectroscopy measurements, the lowest possible intensity of incident light was used; the spectroscopic identity of the samples was confirmed after each measurement to ensure that no unwanted photodegradation processes occurred. All measurements were accomplished using fresh solutions prepared in the dark. ^1H and ^13C NMR spectra were obtained in CDCl3 on 101, 125, 400 and 500 MHz spectrometers. ^1H chemical shifts are reported in ppm relative to the tetramethylsilane signal (TMS, δ=0.00 ppm), using the residual solvent signal as an internal reference. ^13C NMR chemical shifts are reported in ppm relative to the CDCl3 signal as an internal standard. IR spectra were recorded on an FTIR spectrophotometer. Mass spectra (MS) and high resolution mass spectra (HRMS) were recorded using an ESI and APCI techniques. Absorption spectra and the molar absorption coefficients were obtained on a UV-vis spectrometer with matched 1.0-cm quartz cells. […] A nanosecond flash lamp (filled with H2) was used to determine the fluorescence lifetimes. The data obtained were deconvolved from the measured decay curves of the sample and the instrumental response function. The quantum yields of fluorescence were obtained using a calibrated integration sphere.
as §1

A short description of data set [3]: Fluorescence emission spectroscopy. To be noted: emission maximum.
Description: as §2

For `CC1=CC(C)=[N+]2C1=C(COC(=O)Cc1ccccc1)c1c(C)cc(C)n1[B-]2(c1ccccc1)c1ccccc1` [Compound 4, 4,4′-Diphenyl-8-methyl-(2-phenylacetate)-1,3,5,7-tetramethyl-4-bora-3a,4a-diaza-s-indacene], in data set [1], the “εΦ (quantum efficiency)” value stood at 583 M⁻¹ cm⁻¹ and the “Φ (quantum yield)” value was 0.01. Besides, in data set [2], the λmax stood at 517 nm and the “ε (extinction coefficient)” value was 58,300. For the same compound, the λem in data set [3] came out at 562 nm.

“2,6-Diiodo-4,4′-dimethyl-8-chloro ethyl-1,3,5,7-tetramethyl-4-bora-3a,4a-diaza-s-indacene [Compound 5]”: in data set [1], the “εΦ (quantum efficiency)” value is recorded as 59,280 M^−1cm^−1 and the “Φ (quantum yield)” value turned out to be 0.95. For the same compound, in data set [2], the λmax stood at 542 nm and the “ε (extinction coefficient)” value is 62,400. In data set [3], this compound had a λem of 573 nm.

On to `CC1=CC(C)=[N+]2C1=C(COC(=O)Cc1ccccc1)c1c(C)cc(C)n1[B-]2(C)C` [Compound 2, 4,4′-Dimethyl-8-methyl(2-phenylacetate)-1,3,5,7-tetramethyl-4-bora-3a,4a-diaza-s-indacene], for which, in data set [1], the “εΦ (quantum efficiency)” value was 7,398 M^−1cm^−1 and the “Φ (quantum yield)” value amounted to 0.11. Besides, in data set [2], the λmax was 512 nm and the “ε (extinction coefficient)” value is 68,500. For the same compound, the λem in data set [3] was determined as 550 nm.

Consider `CC[B-]1(CC)n2c(C)cc(C)c2C(COC(=O)Cc2ccccc2)=C2C(C)=CC(C)=[N+]21` [Compound 3, 4,4′-Diethyl-8-methyl-(2-phenylacetate)-1,3,5,7-tetramethyl-4-bora-3a,4a-diaza-s-indacene], for which, in data set [1], the “εΦ (quantum efficiency)” value is given as 4,424 M^−1cm^−1 and the “Φ (quantum yield)” value was 0.08. In data set [2], the λmax was 513 nm and the “ε (extinction coefficient)” value is recorded as 55,300. Besides, the λem in data set [3] was 550 nm.

With `CC1=C(I)C(C)=[N+]2C1=C(COC(=O)Cc1ccccc1)c1c(C)c(I)c(C)n1[B-]2(C)C` [Compound 6, 2,6-Diiodo-4,4′-dimethyl-8-methyl-(2-phenylacetate)-1,3,5,7-tetramethyl-4-bora-3a,4a-diaza-s-indacene], in data set [1], the “εΦ (quantum efficiency)” value was 16,996 M^−1cm^−1 and the “Φ (quantum yield)” value is listed as 0.28. Also, in data set [2], the λmax was 538 nm and the “ε (extinction coefficient)” value was 60,700. The λem in data set [3] is recorded as 572 nm.

Take `CC1=CC(C)=[N+]2C1=C(CCl)c1c(C)cc(C)n1[B-]2(C)C` [Compound 1, 4,4′-Dimethyl-8-chloromethyl-1,3,5,7-tetramethyl-4-bora-3a,4a-diaza-s-indacene]: in data set [1], the “εΦ (quantum efficiency)” value was 41,194 M^−1cm^−1 and the “Φ (quantum yield)” value was 0.68. Besides, in data set [2], the λmax was found to be 519 nm and the “ε (extinction coefficient)” value was 60,580. In addition, in data set [3], the λem came to 556 nm.
